Our source for the cytotoxicity values is ChEMBL document CHEMBL3507680, “University of Dundee, Gates Library screen for HepG2 cell viability”.

This series in a line: Human HepG2 cell viability assay in 384 well format. It counts as toxicity, cell-based. The arrangement: dose 125 nL, time 70.5 hour; cytotoxicity at 70.5 h: concentration not given beside the values. As to conditions: HepG2 cells, read-out: Inhibition.

`Cc1cc(CN2CC[C@H]3C[C@@H](c4nccs4)O[C@@H]3C2)no1`: the cytotoxicity at 70.5 h is -2.76%.

For the molecule `C[C@@H]1C[C@@H]2CCN(Cc3ccncc3)C[C@H]2O1`, the cytotoxicity at 70.5 h was -3.23%.

As to `Cc1noc(C)c1CN1CC[C@H]2C[C@H](c3ccncn3)O[C@@H]2C1`, the cytotoxicity at 70.5 h was -8.76%.

With `COc1cc(N2CC[C@H](O)[C@@H]2Cc2ccccc2)ncn1`, the cytotoxicity at 70.5 h stood at 16.6%.

Turning to `CC(C)Nc1ncnc2c1CCN(C(=O)CCc1ccccc1)CC2`, the cytotoxicity at 70.5 h was -3.23%.

Take `CC(C)Nc1ncnc2c1CCN(C(=O)N1CCOCC1)CC2`: the cytotoxicity at 70.5 h is 10.6%.

Turning to `CN(C)C(=O)N1CCC2(CC1)C(c1cnn(C)c1)CC(=O)N2C` (stereo not drawn), the cytotoxicity at 70.5 h is -7.08%.

In the case of `Cc1cccc(C(=O)N2C[C@H](NS(C)(=O)=O)[C@@H]3OCCC[C@@H]32)n1`, the cytotoxicity at 70.5 h is -10.2%.

For the molecule `CN1CCN(Cc2ccsc2)Cc2cccnc21`, the cytotoxicity at 70.5 h is -6.75%.

For the molecule `CN1CCN(Cc2cccnc2)Cc2cccnc21`, the cytotoxicity at 70.5 h was -7.13%.

`CC(C)Nc1ncnc2c1CCN(C(=O)c1ccc[nH]1)CC2`: the cytotoxicity at 70.5 h was -9.63%.

Regarding `CS(=O)(=O)N[C@@H]1CN(C(=O)c2cnccn2)[C@@H]2CCCO[C@@H]21`, the cytotoxicity at 70.5 h is 29.4%.

`COCCN1CCN(Cc2ccoc2)Cc2cccnc21`: the cytotoxicity at 70.5 h was 6.66%.

As to `CC(C)Nc1ncnc2c1CCN(C(=O)Cc1cccs1)CC2`, the cytotoxicity at 70.5 h was -7.55%.

Regarding `CN1CCN(Cc2ccncc2)Cc2cccnc21`, the cytotoxicity at 70.5 h is -9.78%.

`CN1C(=O)CC(c2cnn(C)c2)C12CCN(C(=O)c1ccno1)CC2` (stereo not drawn): the cytotoxicity at 70.5 h is -12%.

Regarding `COc1cc(N2CC[C@H](O)[C@@H]2Cc2cccnc2)ncn1`, the cytotoxicity at 70.5 h was -10.8%.

As to `Cc1cccc(COC[C@]23COC[C@H]2CN(c2ncccn2)C3)n1`, the cytotoxicity at 70.5 h is -10.2%.

In the case of `O=C(c1ccnnc1)N1C[C@@H]2COC[C@]2(COCC2CC2)C1`, the cytotoxicity at 70.5 h is -7.55%.

On to `O=C(c1cccs1)N1C[C@H]2CCC[C@@]2(COCC2CCOCC2)C1`, for which the cytotoxicity at 70.5 h came to 23.2%.

For the molecule `CNC(=O)[C@@]12CCO[C@@H]1CCN(Cc1c(C)noc1C)C2`, the cytotoxicity at 70.5 h is -6.35%.

`CCC1=N[C@@]2(CC[C@@H]3CN(C(=O)NCc4ccccc4C)C[C@@H]32)C(=O)N1`: the cytotoxicity at 70.5 h is -11.1%.

For the molecule `Cc1cnc(C(=O)N2CCC3(CC2)CN(c2ccccn2)CCO3)cn1`, the cytotoxicity at 70.5 h is -6.44%.

As to `CC(C)NC(=O)C1CN(C(=O)NCc2ccccc2)CC12CCOCC2` (stereo not drawn), the cytotoxicity at 70.5 h was 1.12%.

Take `COCCN1CCC12CCN(C(=O)c1ccc3[nH]ccc3c1)C2` (stereo not drawn): the cytotoxicity at 70.5 h was -7.37%.

With `COCCNC(=O)c1cc2c(c3ccccc3n2C)n1C(=O)N(C)C`, the cytotoxicity at 70.5 h is -9.07%.

In the case of `O=C(NC1CCC1)C1=NOC2(CCN(Cc3ccc(F)cc3)C2)C1` (stereo not drawn), the cytotoxicity at 70.5 h stood at 14.1%.

As to `CCNC(=O)c1c2c(N3CCN(C)CC3)ncnc2n2ccccc12`, the cytotoxicity at 70.5 h was determined as 2.84%.

Take `COc1cccc2c1OCC(C(=O)N1CCN(CCS(C)(=O)=O)CC1)C2` (stereo not drawn): the cytotoxicity at 70.5 h was -4.99%.

For `COc1ccccc1-n1nc(CC(C)C)nc1CSc1nnc(N)s1`, the cytotoxicity at 70.5 h is -15.9%.

Take `CN1CCC(Cc2noc(CCc3nc4ccccc4nc3O)n2)CC1`: the cytotoxicity at 70.5 h is -7.26%.

Take `O=C(O)[C@@H]1CN(C2CCCCC2)C[C@H]1C1CC1`: the cytotoxicity at 70.5 h is -13.9%.

For `CCCc1ccc(CN2CCC3(CC2)CNC(=O)C3)o1`, the cytotoxicity at 70.5 h was 21.8%.

For `CC(C)c1cc(CN(C)C(=O)CN2CCNC2=O)no1`, the cytotoxicity at 70.5 h was 18.6%.

`OCCN(Cc1ccccc1)Cc1nc(-c2ccc3c(c2)OCO3)no1`: the cytotoxicity at 70.5 h is -9.5%.

On to `CNC(=O)CN1CCOCC12CCN(C(=O)c1ccc(C)cc1)CC2`, for which the cytotoxicity at 70.5 h is -6.86%.

For the molecule `O=C(C1CCOCC1)N1CCC2(CCN(Cc3nccs3)CC2)CC1`, the cytotoxicity at 70.5 h was 9.62%.

Take `CCOCC1CN(C(=O)c2cscn2)Cc2cn(C)nc21` (stereo not drawn): the cytotoxicity at 70.5 h is -4.69%.

As for `CCOCC1CN(C(=O)c2cnccn2)Cc2cnn(CC3CC3)c21` (stereo not drawn), the cytotoxicity at 70.5 h was -10.4%.

For `CCOCC1CN(C(=O)c2ccncn2)Cc2cnn(CC)c21` (stereo not drawn), the cytotoxicity at 70.5 h is -11.7%.

Take `O=C(c1ccnnc1)N1C[C@H]2CCC[C@@]2(COCc2ccccn2)C1`: the cytotoxicity at 70.5 h is -3.81%.

In the case of `CN1C(=O)CC(c2cnn(C)c2)C12CCN(C(=O)c1ccncc1)CC2` (stereo not drawn), the cytotoxicity at 70.5 h was -6.57%.

On to `Cc1nc(COC[C@@H]2CCC[C@@]23CN(C)CCO3)cs1`, for which the cytotoxicity at 70.5 h was 4.91%.

As for `O=C1[C@H]2CN(Cc3cccs3)C[C@H]2CN1c1ccsc1`, the cytotoxicity at 70.5 h was -5.8%.

For the molecule `CC(C)Nc1ncnc2c1CCN(C(=O)c1ccccc1F)CC2`, the cytotoxicity at 70.5 h was -3.35%.

`Cc1noc(C)c1CN1CC[C@H]2OCC[C@@]2(C(=O)N2CCCC2)C1`: the cytotoxicity at 70.5 h is -5.9%.

Turning to `Cc1noc(C)c1CN1CC[C@H]2OCC[C@@]2(C(=O)N2CCOCC2)C1`, the cytotoxicity at 70.5 h is -4.59%.

Consider `c1cn2c(n1)CN(Cc1ccsc1)CC(Cn1cncn1)C2` (stereo not drawn), for which the cytotoxicity at 70.5 h is -11.2%.

For the molecule `Cc1noc(C)c1CN1CC[C@H]2OCC[C@@]2(C(=O)NCC2CC2)C1`, the cytotoxicity at 70.5 h was -5.64%.

As for `COCCNC(=O)[C@@]12CCO[C@@H]1CCN(Cc1cc(C)on1)C2`, the cytotoxicity at 70.5 h was 7.02%.

On to `CC(C)N1CCO[C@H]2CN(C(=O)c3ccsc3)C[C@H]21`, for which the cytotoxicity at 70.5 h was -7.23%.

Regarding `O=C(c1cccc(F)c1)N1CCC2(CC1)CN(c1ccccn1)CCO2`, the cytotoxicity at 70.5 h is -8.22%.

With `CCOCC1CN(Cc2cccs2)Cc2nn(C)cc21` (stereo not drawn), the cytotoxicity at 70.5 h is -6.21%.

In the case of `Cn1cc(N2CC3(CCN(Cc4cccnc4)CC3)OCC2=O)cn1`, the cytotoxicity at 70.5 h is -3.89%.

Take `c1coc(CN2C[C@@H]3OCCN(CC4CCCO4)[C@@H]3C2)c1` (stereo partly drawn): the cytotoxicity at 70.5 h is -11.5%.

On to `COc1cc(N2C[C@@H]3COC[C@]3(COCc3ccncc3)C2)ncn1`, for which the cytotoxicity at 70.5 h is 8.15%.

Consider `Cc1noc(C)c1CN1Cc2nccn2CC(CN2CCOCC2)C1` (stereo not drawn), for which the cytotoxicity at 70.5 h was -11.8%.

For `c1ccc(NCc2cnc3n2CCN(CC2CCOC2)CC3)nc1` (stereo not drawn), the cytotoxicity at 70.5 h is -8.55%.

Turning to `c1cnc(N2CC3(CCN(Cc4ccncc4)C3)C2)nc1`, the cytotoxicity at 70.5 h was -6.13%.

Turning to `Fc1cnc(N2CCCC3(CCN(Cc4ccoc4)C3)C2)nc1` (stereo not drawn), the cytotoxicity at 70.5 h stood at 11.2%.

For the molecule `CN1CCN(Cc2cccc(C#N)c2)Cc2cccnc21`, the cytotoxicity at 70.5 h is -7.78%.

Turning to `COc1cc(N2C[C@@H]3COC[C@]3(COc3ncccc3F)C2)ncn1`, the cytotoxicity at 70.5 h is -9.91%.

Consider `Cc1ccc2c(n1)N(Cc1ccncc1)CCN(S(C)(=O)=O)C2`, for which the cytotoxicity at 70.5 h is -10%.

With `c1cncc(-c2nnn3c2COCC(CNC2CCOCC2)C3)c1` (stereo not drawn), the cytotoxicity at 70.5 h worked out at 12.3%.

Take `c1cncc(-c2nnn3c2COCC(CNCC2CCOCC2)C3)c1` (stereo not drawn): the cytotoxicity at 70.5 h amounted to 8.92%.

`c1cnc(N2CCC3(CCN(Cc4cccnc4)CC3)CC2)nc1`: the cytotoxicity at 70.5 h was -8.42%.

In the case of `Cc1ccc2c(n1)N(Cc1cccnc1)CCN(C1CCOCC1)C2`, the cytotoxicity at 70.5 h is 2.27%.

`CN(Cc1ccncc1)C1COC2(CCN(Cc3nccn3C)CC2)C1` (stereo not drawn): the cytotoxicity at 70.5 h was -8.93%.
